Measured values as given in patent US11780832B2, “Lactivicin compounds, their preparation and use as antibacterial agents” (priority 2021, dated 2023).
In brackets after ≈: the same amount, converted by molar mass. Like-named read-outs stand apart in the source and are kept apart here.

What was measured:
Assay type in all cases: cell-based
[1] = test system: Acinetobacter baumannii ATCC 19606; test: MIC, CLSI broth microdilution; conditions: ATCC19606
Procedure, shortened: (§1)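 CLSI broth microdilution; 2-fold compound series, final 16-0.0125 μg/mL; final inoculum 5×10^5 CFU/mL. Strains genotyped for resistance markers, passaged twice from frozen stock before testing.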

[2] = test system: Citrobacter freundii species complex OXA-181; test: MIC, CLSI broth microdilution
Procedure, shortened: as §1

[3] = test system: Enterobacter cloacae species complex NDM-1; test: MIC, CLSI broth microdilution
Procedure, shortened: as §1

[4] = test system: Escherichia coli ATCC 25922; test: MIC, CLSI broth microdilution; conditions: ATCC25922
Procedure, shortened: as §1

Escherichia coli CMY-2 = test: MIC, CLSI broth microdilution; conditions: CMY2
Procedure, shortened: as §1

[5] = test system: Escherichia coli CTX-M-15; test: MIC, CLSI broth microdilution; conditions: CTXM15
Procedure, shortened: as §1

Escherichia coli SHV-12 = test: MIC, CLSI broth microdilution; conditions: SHV12
Procedure, shortened: as §1

[6] = test system: Klebsiella aerogenes VIM-1, SHV-12; test: MIC, CLSI broth microdilution
Procedure, shortened: as §1

[7] = test system: Klebsiella oxytoca KPC-2, TEM-1; test: MIC, CLSI broth microdilution
Procedure, shortened: as §1

[8] = test system: Klebsiella pneumoniae KPC-2; test: MIC, CLSI broth microdilution; conditions: KPC2
Procedure, shortened: as §1

[9] = test system: Klebsiella pneumoniae KPC-3; test: MIC, CLSI broth microdilution
Procedure, shortened: as §1

[10] = test system: Klebsiella pneumoniae OXA-163, OXA-1_OXA-30, SHV-1, TEM-1; test: MIC, CLSI broth microdilution
Procedure, shortened: (§2)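 Working inoculum of 5×10^5 CFU/mL, prepared from freshly subcultured genotyped strains, was dispensed onto two-fold compound dilutions giving final concentrations of 16-0.0125 μg/mL. Testing adhered to CLSI broth microdilution methodology.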

[11] = test system: Klebsiella pneumoniae OXA-48, SHV-1; test: MIC, CLSI broth microdilution
Procedure, shortened: as §2

[12] = test system: Klebsiella pneumoniae SHV-12; test: MIC, CLSI broth microdilution
Procedure, shortened: as §1

[13] = test system: Pseudomonas aeruginosa ATCC 27853; test: MIC, CLSI broth microdilution; conditions: ATCC27853
Procedure, shortened: as §1

[14] = test system: Pseudomonas aeruginosa AmpC overexpressed; test: MIC, CLSI broth microdilution
Procedure, shortened: as §2

[15] = test system: Pseudomonas aeruginosa OprD negative; test: MIC, CLSI broth microdilution
Procedure, shortened: as §2

[16] = test system: Serratia marcescens AmpC overexpressed; test: MIC, CLSI broth microdilution
Procedure, shortened: as §2

[17] = test system: Serratia marcescens SME-2; test: MIC, CLSI broth microdilution; conditions: SME2
Procedure, shortened: as §1

Escherichia coli CMY-DHA [18] = test: MIC against CMY-DHA producing strains, compound alone
Experimental: (§3) Gram-negative and Gram-positive bacterial strains used during the in vitro minimum inhibitory concentration (MIC) determination were obtained either from the American Type Culture Collection (ATCC) or from clinical specimens. All strains were characterized genotypically and the respective antibiotic resistance markers for each strain were identified.
(§4) Isolates were sub-cultured onto appropriate media and stocked in skim milk at −80° C. Following two subcultures from frozen stock, in vitro antimicrobial susceptibility testing was performed using the Clinical and Laboratory Standards Institute (CLSI) broth microdilution method. Briefly, fresh cultures were suspended in culture media to give a final stock inoculum size of 5×10^7 colony forming units per milliliter of broth (CFU/mL). Test compounds were prepared at a stock solution concentration equal to 128 μg/mL, then diluted to give a final an initial working concentration of 32 μg/mL. 100 μL of the stock solutions were added to the first wells in a 96-well plate and were then diluted using a 2-fold dilution method to give a range of 32-0.025 μg/mL. 100 μL of the bacterial suspensions were then added to the 96-well plates to give a final working inoculum size of 5×10^5 CFU/mL. The final compound concentration range was 16-0.0125 μg/mL. […] MICs for comparator agents were determined using custom-designed, in-house prepared 96-well broth microdilution panels.

[19] = test system: Klebsiella pneumoniae CMY-DHA; test: as above; conditions: row r32
Experimental: as §3, §4

[20] = test system: Proteus mirabilis CMY-DHA; test: as above; conditions: row r36
Experimental: as §3, §4

[21] = test system: Citrobacter freundii species complex Elevated AmpC; test: Synergistic activity: MIC in the presence of Avibactam; conditions: row r16, in the presence of Avibactam @ 4 μg/mL
Experimental: as §4
(§5) The same method used to test the activity of the claimed compounds was used to determine their synergistic activity when combined with a β-lactamase inhibitor except that either a fixed concentration or fixed ratio of a β-lactamase inhibitor was added to the 96-well plates prior to adding the bacteria cultures. Synergistic activity was defined as the reduction of MIC of a given compound when tested using the β-lactamase inhibitor versus testing the compound in the absence of a β-lactamase inhibitor.

Escherichia coli CMY-DHA [22] = test: as above
Experimental: as §4, §5

[23] = test system: Klebsiella pneumoniae CMY-DHA; test: as above; conditions: row r32, in the presence of Avibactam @ 4 μg/mL
Experimental: as §4, §5

[24] = strain of row r26, in the presence of Avibactam @ 4 μg/mL
[25] = strain of row r27, in the presence of Avibactam @ 4 μg/mL
[26] = strain of row r28, in the presence of Avibactam @ 4 μg/mL
[27] = strain of row r29, in the presence of Avibactam @ 4 μg/mL
[28] = strain of row r30, in the presence of Avibactam @ 4 μg/mL
[29] = strain of row r31, in the presence of Avibactam @ 4 μg/mL
[30] = strain of row r34, in the presence of Avibactam @ 4 μg/mL
[31] = strain of row r35, in the presence of Avibactam @ 4 μg/mL

SMILES | MIC [1] [mg/L] | MIC [3] [mg/L] | MIC [4] [mg/L] | MIC (Escherichia coli CMY-2) [mg/L] | MIC [5] [mg/L] | MIC (Escherichia coli SHV-12) [mg/L] | MIC [6] [mg/L] | MIC [8] [mg/L] | MIC [10] [mg/L] | MIC [11] [mg/L] | MIC [13] [mg/L] | MIC [14] [mg/L] | MIC [15] [mg/L] | MIC [16] [mg/L] | MIC [17] [mg/L] | MIC (Escherichia coli CMY-DHA [18]; strain of row r26) [mg/L] | MIC (Escherichia coli CMY-DHA [18]; strain of row r27) [mg/L] | MIC (Escherichia coli CMY-DHA [18]; strain of row r28) [mg/L] | MIC (Escherichia coli CMY-DHA [18]; strain of row r29) [mg/L] | MIC (Escherichia coli CMY-DHA [18]; strain of row r30) [mg/L] | also measured
Nc1nc(/C(=N/OC2(C(=O)O)CCOCC2)C(=O)N[C@H]2CON(C3(C(=O)O)C[C@H](N4C(=O)c5cc(O)c(O)cc5C4=O)C(=O)O3)C2=O)cs1 (stereo partly drawn) [Cmpd 8, 4-({(Z)-[1-(2-amino-1,3-thiazol-4-yl)-2-({(4S)-2-[(4S)-2-carboxy-4-(5,6-dihydroxy-1,3-dioxo-1,3-dihydro-2H-isoindol-2-yl)-5-oxooxolan-2-yl]-3-oxo-1,2-oxazolidin-4-yl}amino)-2-oxoethylidene]amino}oxy)oxane-4-carboxylic acid] | 0.12 (≈ 0.17 µM) | 0.25 (≈ 0.355 µM) | 0.06 (≈ 0.0852 µM) | 1 (≈ 1.42 µM) | 2 (≈ 2.84 µM) | 1 (≈ 1.42 µM) | 2 (≈ 2.84 µM) | 0.12 (≈ 0.17 µM) | 0.06 (≈ 0.0852 µM) | 0.0149 (≈ 0.0211 µM) | 0.12 (≈ 0.17 µM) | 0.5 (≈ 0.71 µM) | 0.12 (≈ 0.17 µM) | 0.06 (≈ 0.0852 µM) | 0.06 (≈ 0.0852 µM) | 1 (≈ 1.42 µM) | 0.06 (≈ 0.0852 µM) | 0.25 (≈ 0.355 µM) | 0.5 (≈ 0.71 µM) | 0.25 (≈ 0.355 µM) | MIC ([2]; Citrobacter freundii): 0.0149 mg/L (≈ 0.0211 µM); MIC [7]: 0.0149 mg/L (≈ 0.0211 µM); MIC ([9]; KPC3): 0.0149 mg/L (≈ 0.0211 µM); MIC ([12]; SHV12): 0.0149 mg/L (≈ 0.0211 µM); MIC (Escherichia coli CMY-DHA [18]; strain of row r31): 1 mg/L (≈ 1.42 µM); MIC (Escherichia coli CMY-DHA [18]; strain of row r34): 0.12 mg/L (≈ 0.17 µM); MIC (Escherichia coli CMY-DHA [18]; strain of row r35): 0.25 mg/L (≈ 0.355 µM); MIC [19]: 1 mg/L (≈ 1.42 µM); MIC [20]: 4 mg/L (≈ 5.68 µM); MIC [21]: 0.03 mg/L; MIC (Escherichia coli CMY-DHA [22]; [24]): 0.03 mg/L; MIC (Escherichia coli CMY-DHA [22]; [25]): <=0.008 μg/mL; MIC (Escherichia coli CMY-DHA [22]; [26]): <=0.008 μg/mL; MIC (Escherichia coli CMY-DHA [22]; [27]): 0.06 mg/L; MIC (Escherichia coli CMY-DHA [22]; [28]): <=0.008 μg/mL; MIC (Escherichia coli CMY-DHA [22]; [29]): 0.06 mg/L; MIC (Escherichia coli CMY-DHA [22]; [30]): 0.015 mg/L; MIC (Escherichia coli CMY-DHA [22]; [31]): <=0.008 μg/mL; MIC [23]: 0.25 mg/L
CC(C)(O/N=C(\C(=O)N[C@@H]1C(=O)N2C(C(=O)[O-])=C(C[n+]3ccccc3)CS[C@H]12)c1csc(N)n1)C(=O)O [Ceftazidime, ceftazidime, reference compound] | 8 (≈ 14.6 µM) | > 32 | 0.25 (≈ 0.457 µM) | > 32 | 4 (≈ 7.32 µM) | 32 (≈ 58.5 µM) | > 32 | > 32 | > 32 | 0.5 (≈ 0.915 µM) | 1 (≈ 1.83 µM) | 8 (≈ 14.6 µM) | 2 (≈ 3.66 µM) | 0.5 (≈ 0.915 µM) | 0.25 (≈ 0.457 µM) | 32 (≈ 58.5 µM) | 32 (≈ 58.5 µM) | 8 (≈ 14.6 µM) | 32 (≈ 58.5 µM) | 4 (≈ 7.32 µM) | MIC ([2]; Citrobacter freundii species complex, OXA-181, read-out: MIC): 8 mg/L (≈ 14.6 µM); MIC ([7]; KPC-2, TEM-1, read-out: MIC): 1 mg/L (≈ 1.83 µM); MIC ([9]; KPC3, KPC-3, read-out: MIC): > 32 mg/L; MIC ([12]; SHV12, SHV-12, read-out: MIC): > 32 mg/L; MIC (Escherichia coli CMY-DHA [18]; strain of row r31): 32 mg/L (≈ 58.5 µM); MIC (Escherichia coli CMY-DHA [18]; strain of row r34): > 32 mg/L; MIC (Escherichia coli CMY-DHA [18]; strain of row r35): > 32 mg/L; MIC [19]: 16 mg/L (≈ 29.3 µM); MIC [20]: 16 mg/L (≈ 29.3 µM); MIC [21]: 0.25 mg/L; MIC (Escherichia coli CMY-DHA [22]; [24]): 0.5 mg/L; MIC (Escherichia coli CMY-DHA [22]; [25]): 0.5 mg/L; MIC (Escherichia coli CMY-DHA [22]; [26]): 0.06 mg/L; MIC (Escherichia coli CMY-DHA [22]; [27]): 0.12 mg/L; MIC (Escherichia coli CMY-DHA [22]; [28]): <=0.015 μg/mL; MIC (Escherichia coli CMY-DHA [22]; [29]): 0.12 mg/L; MIC (Escherichia coli CMY-DHA [22]; [30]): 0.5 mg/L; MIC (Escherichia coli CMY-DHA [22]; [31]): 0.25 mg/L; MIC [23]: 0.12 mg/L
